# Experimental data: patent publication US9751890B2, “Heteroaryl derivatives as CFTR modulators” (Vertex Pharmaceuticals Incorporated, priority 2008, dated 2017)
# Biological target: T1, ΔF508-CFTR (Homo sapiens, UniProt P13569, DEL508-508)
# T1 construct: expressed in transfected cells
# Test: Membrane potential optical assay for ΔF508-CFTR correction (single-addition HTS format)
# Type: cell-based
# Conditions: NIH3T3 mouse fibroblasts stably expressing ΔF508-CFTR; 16-24 hrs with compound; activation with 10 μM forskolin and 20 μM genistein; read-out: BinnedMaxEfficacy (PercentActivity)
# Description: Membrane potential optical methods for assaying ΔF508-CFTR modulation properties of compounds.
# The assay utilizes fluorescent voltage sensing dyes to measure changes in membrane potential using a fluorescent plate reader (e.g., FLIPR III, Molecular Devices, Inc.) as a readout for increase in functional ΔF508-CFTR in NIH 3T3 cells. The driving force for the response is the creation of a chloride ion gradient in conjunction with channel activation by a single liquid addition step after the cells have previously been treated with compounds and subsequently loaded with a voltage sensing dye.
# To identify small molecules that correct the trafficking defect associated with ΔF508-CFTR; a single-addition HTS assay format was developed. Assay Plates containing cells are incubated for ˜2-4 hours in tissue culture incubator at 37° C., 5% CO2, 90% humidity. Cells are then ready for compound exposure after adhering to the bottom of the assay plates.
# The cells were incubated in serum-free medium for 16-24 hrs in tissue culture incubator at 37° C., 5% CO2, 90% humidity in the presence or absence (negative control) of test compound. The cells were subsequently rinsed 3× with Krebs Ringers solution and loaded with a voltage sensing redistribution dye. To activate ΔF508-CFTR, 10 μM forskolin and the CFTR potentiator, genistein (20 μM), were added along with Cl^−-free medium to each well. The addition of Cl^−-free medium promoted Cl^− efflux in response to ΔF508-CFTR activation and the resulting membrane depolarization was optically monitored using voltage sensor dyes.
# Bath Solution #1: (in mM) NaCl 160, KCl 4.5, CaCl2 2, MgCl2 1, HEPES 10, pH 7.4 with NaOH.
# Chloride-free bath solution: Chloride salts in Bath Solution #1 are substituted with gluconate salts.
# NIH3T3 mouse fibroblasts stably expressing ΔF508-CFTR are used for optical measurements of membrane potential. The cells are maintained at 37° C. in 5% CO2 and 90% humidity in Dulbecco's modified Eagle's medium supplemented with 2 mM glutamine, 10% fetal bovine serum, 1×NEAA, β-ME, 1× pen/strep, and 25 mM HEPES in 175 cm^2 culture flasks. For all optical assays, the cells were seeded at ˜20,000/well in 384-well matrigel-coated plates and cultured for 2 hrs at 37° C. before culturing at 27° C. for 24 hrs. for the potentiator assay. For the correction assays, the cells are cultured at 27° C. or 37° C. with and without compounds for 16-24 hours.
# T1 sequence (P13569 with tags, fused parts or gaps DEL508-508): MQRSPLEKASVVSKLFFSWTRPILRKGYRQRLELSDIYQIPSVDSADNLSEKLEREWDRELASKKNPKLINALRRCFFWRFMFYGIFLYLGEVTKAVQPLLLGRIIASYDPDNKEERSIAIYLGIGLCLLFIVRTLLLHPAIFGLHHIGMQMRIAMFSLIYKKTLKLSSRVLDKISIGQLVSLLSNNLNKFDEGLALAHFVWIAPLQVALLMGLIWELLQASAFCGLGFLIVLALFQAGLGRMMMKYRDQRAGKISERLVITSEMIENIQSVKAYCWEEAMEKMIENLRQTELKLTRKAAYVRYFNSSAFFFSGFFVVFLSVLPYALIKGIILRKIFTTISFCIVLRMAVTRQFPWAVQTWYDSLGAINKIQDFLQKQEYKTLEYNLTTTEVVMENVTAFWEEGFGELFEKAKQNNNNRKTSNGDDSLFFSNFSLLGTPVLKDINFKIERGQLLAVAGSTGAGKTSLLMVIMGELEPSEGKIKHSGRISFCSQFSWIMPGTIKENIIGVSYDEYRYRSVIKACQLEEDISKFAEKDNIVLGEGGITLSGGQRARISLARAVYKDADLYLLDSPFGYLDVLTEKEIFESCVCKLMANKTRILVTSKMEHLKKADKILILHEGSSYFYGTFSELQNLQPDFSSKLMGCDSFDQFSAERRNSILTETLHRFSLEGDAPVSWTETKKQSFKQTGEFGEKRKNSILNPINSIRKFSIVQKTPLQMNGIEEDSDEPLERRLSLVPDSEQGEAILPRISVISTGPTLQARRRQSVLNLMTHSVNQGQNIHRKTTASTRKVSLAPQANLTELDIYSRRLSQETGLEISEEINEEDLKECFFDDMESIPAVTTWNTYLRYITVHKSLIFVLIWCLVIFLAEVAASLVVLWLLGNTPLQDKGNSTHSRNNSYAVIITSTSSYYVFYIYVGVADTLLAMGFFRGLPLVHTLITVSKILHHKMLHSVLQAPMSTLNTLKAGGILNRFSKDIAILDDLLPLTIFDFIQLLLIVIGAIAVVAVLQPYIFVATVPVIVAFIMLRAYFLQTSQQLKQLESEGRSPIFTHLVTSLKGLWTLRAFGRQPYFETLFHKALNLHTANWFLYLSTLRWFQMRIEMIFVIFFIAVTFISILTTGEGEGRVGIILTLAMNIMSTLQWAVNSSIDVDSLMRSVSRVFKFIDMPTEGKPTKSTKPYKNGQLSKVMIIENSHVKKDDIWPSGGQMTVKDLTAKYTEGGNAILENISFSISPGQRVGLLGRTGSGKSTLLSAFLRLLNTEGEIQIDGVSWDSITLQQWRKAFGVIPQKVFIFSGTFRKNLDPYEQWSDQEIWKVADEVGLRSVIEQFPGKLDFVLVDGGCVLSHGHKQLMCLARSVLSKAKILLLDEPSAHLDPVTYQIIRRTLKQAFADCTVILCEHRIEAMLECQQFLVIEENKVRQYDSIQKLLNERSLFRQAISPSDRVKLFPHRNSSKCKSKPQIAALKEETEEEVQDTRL
row,Emax [%],SMILES
1,> 100,"O=C(Nc1cnc(Cc2ccccc2Cl)cn1)C1(c2ccc3c(c2)OCO3)CC1 [Compound 1, 1-(benzo[d][1,3]dioxol-5-yl)-N-(5-(2-chlorobenzyl)pyrazin-2-yl)cyclopropanecarboxamide]"
2,> 100,"COc1ccccc1Nc1cnc(NC(=O)C2(c3ccc4c(c3)OCO4)CC2)cn1 [Compound 2, 1-(benzo[d][1,3]dioxol-5-yl)-N-(5-(2-methoxyphenylamino)pyrazin-2-yl)cyclopropanecarboxamide]"
3,> 100,COc1ccccc1Cc1ccc(NC(=O)C2(c3ccc4c(c3)OCO4)CC2)cn1 [Compound 3]
4,> 100,COc1ccccc1Cc1ccc(NC(=O)C2(c3ccc4c(c3)OCO4)CC2)nn1 [Compound 4]
5,25 to 100,"O=C(Nc1ccc(CC2CCCCC2)nn1)C1(c2ccc3c(c2)OCO3)CC1 [Compound 5, 1-(benzo[d][1,3]dioxol-5-yl)-N-(6-(cyclohexylmethyl)pyridazin-3-yl)cyclopropanecarboxamide]"
6,25 to 100,Cc1ncc(NC(=O)C2(c3ccc4c(c3)OCO4)CC2)cc1-c1cccc(S(=O)(=O)N(C)C)c1 [Compound 6]
7,> 100,"O=C(Nc1ccc(-c2ccccc2Cl)nc1)C1(c2ccc3c(c2)OCO3)CC1 [Compound 7, 1-(benzo[d][1,3]dioxol-5-yl)-N-(6-(2-chlorophenyl)pyridin-3-yl)cyclopropanecarboxamide]"
8,> 100,Cc1ncc(NC(=O)C2(c3ccc4c(c3)OCO4)CC2)cc1-c1ccc(S(=O)(=O)N(C)C)cc1 [Compound 8]
9,25 to 100,Cc1c(NC(=O)C2(c3ccc4c(c3)OC(F)(F)O4)CC2)ccnc1-c1cccc(C(=O)O)c1 [Compound 9]
10,25 to 100,"COc1ccc(-c2nc(NC(=O)C3(c4ccc5c(c4)OC(F)(F)O5)CC3)ncc2C)cn1 [Compound 10, 1-(2,2-difluorobenzo[d][1,3]dioxol-5-yl)-N-(4-(6-methoxypyridin-3-yl)-5-methylpyrimidin-2-yl)cyclopropanecarboxamide]"
11,25 to 100,"Cc1cnc(NC(=O)C2(c3ccc4c(c3)OC(F)(F)O4)CC2)nc1-c1ccc(C(=O)O)cc1 [Compound 11, 4-(2-(1-(2,2-difluorobenzo[d][1,3]dioxol-5-yl)cyclopropanecarboxamido)-5-methylpyrimidin-4-yl)benzoic acid]"
12,> 100,O=C(Nc1cnc(Cc2ccccc2)cn1)C1(c2ccc3c(c2)OCO3)CC1 [Compound 12]
13,> 100,O=C(Nc1cncc(Cc2ccccc2Cl)n1)C1(c2ccc3c(c2)OCO3)CC1 [Compound 13]
14,> 100,"CC(Oc1ccc(Cl)cc1)c1ccnc(NC(=O)C2(c3ccc4c(c3)OCO4)CC2)n1 (stereo not shown) [Compound 14, 1-(benzo[d][1,3]dioxol-5-yl)-N-(4-(1-(4-chlorophenoxy)ethyl)pyrimidin-2-yl)cyclopropanecarboxamide]"
15,25 to 100,"N#Cc1ccc(NC(=O)C2(c3ccc4c(c3)OCO4)CC2)cn1 [Compound 15, 1-(benzo[d][1,3]dioxol-5-yl)-N-(6-cyanopyridin-3-yl)cyclopropanecarboxamide]"
16,25 to 100,"CNC(=O)c1ccc(-c2cc(NC(=O)C3(c4ccc5c(c4)OCO5)CC3)cnc2C)cc1 [Compound 16, 4-(5-(1-(benzo[d][1,3]dioxol-5-yl)cyclopropanecarboxamido)-2-methylpyridin-3-yl)-N-methylbenzamide]"
17,25 to 100,Cc1ncc(NC(=O)C2(c3ccc4c(c3)OCO4)CC2)cc1-c1cccc(C(N)=O)c1 [Compound 17]

row,Emax [%],SMILES
1,> 100,"Cc1ccc(S(=O)(=O)c2ncccc2NC(=O)C2(c3ccc4c(c3)OCO4)CC2)cc1 [Compound 18, 1-(benzo[d][1,3]dioxol-5-yl)-N-(2-tosylpyridin-3-yl)cyclopropanecarboxamide]"
2,> 100,"O=C(Nc1ccc(Cc2ccccc2)nc1)C1(c2ccc3c(c2)OCO3)CC1 [Compound 19, 1-(benzo[d][1,3]dioxol-5-yl)-N-(6-benzylpyridin-3-yl)cyclopropanecarboxamide]"
3,25 to 100,"Cc1ncc(NC(=O)C2(c3ccc4c(c3)OCO4)CC2)cc1-c1cccc(S(N)(=O)=O)c1 [Compound 20, 1-(benzo[d][1,3]dioxol-5-yl)-N-(6-methyl-5-(3-sulfamoylphenyl)pyridin-3-yl)cyclopropanecarboxamide]"
4,25 to 100,COc1ccc(C2(C(=O)Nc3cnccn3)CC2)cc1 [Compound 21]
5,> 100,"COc1cc(NC(=O)C2(c3ccc4c(c3)OCO4)CC2)nc(OC)n1 [Compound 22, 1-(benzo[d][1,3]dioxol-5-yl)-N-(2,6-dimethoxypyrimidin-4-yl)cyclopropanecarboxamide]"
6,25 to 100,"O=C(Nc1ncc2c(n1)-c1ccoc1CC2)C1(c2ccc3c(c2)OCO3)CC1 [Compound 23, 1-(benzo[d][1,3]dioxol-5-yl)-N-(5,6-dihydrofuro[2,3-h]quinazolin-2-yl)cyclopropanecarboxamide]"
7,> 100,"COc1ccccc1-c1ccc(NC(=O)C2(c3ccc4c(c3)OCO4)CC2)cn1 [Compound 24, 1-(benzo[d][1,3]dioxol-5-yl)-N-(6-(2-methoxyphenyl)pyridin-3-yl)cyclopropanecarboxamide]"
8,25 to 100,"Cc1ccnc(NC(=O)C2(c3ccc4c(c3)OCO4)CC2)n1 [Compound 25, 1-(benzo[d][1,3]dioxol-5-yl)-N-(4-methylpyrimidin-2-yl)cyclopropanecarboxamide]"
9,25 to 100,"Cc1cccc(Oc2ccc(NC(=O)C3(c4ccc5c(c4)OCO5)CC3)cn2)c1C [Compound 26, 1-(benzo[d][1,3]dioxol-5-yl)-N-(6-(2,3-dimethylphenoxy)pyridin-3-yl)cyclopropanecarboxamide]"
10,> 100,"O=C(Nc1cncc(Cc2ccccc2)n1)C1(c2ccc3c(c2)OCO3)CC1 [Compound 27, 1-(benzo[d][1,3]dioxol-5-yl)-N-(6-benzylpyrazin-2-yl)cyclopropanecarboxamide]"
11,25 to 100,"Cc1cnc(NC(=O)C2(c3ccc4c(c3)OC(F)(F)O4)CC2)nc1-c1ccc(=O)[nH]c1 [Compound 28, 1-(2,2-difluorobenzo[d][1,3]dioxol-5-yl)-N-(5-methyl-4-(6-oxo-1,6-dihydropyridin-3-yl)pyrimidin-2-yl)cyclopropanecarboxamide]"
12,25 to 100,Cc1ncc(NC(=O)C2(c3ccc4c(c3)OCO4)CC2)cc1-c1ccc(CO)cc1 [Compound 29]
13,> 100,"CNS(=O)(=O)c1ccc(-c2cc(NC(=O)C3(c4ccc5c(c4)OCO5)CC3)cnc2C)cc1 [Compound 30, 1-(benzo[d][1,3]dioxol-5-yl)-N-(6-methyl-5-(4-(N-methylsulfamoyl)phenyl)pyridin-3-yl)cyclopropanecarboxamide]"
14,25 to 100,"CC(C)c1ccc(NC(=O)C2(c3ccc4c(c3)OCO4)CC2)cn1 [Compound 31, 1-(Benzo[d][1,3]dioxol-5-yl)-N-(6-isopropylpyridin-3-yl)cyclopropanecarboxamide]"
15,> 100,"O=C(Nc1ccc(-c2ccccc2)nc1)C1(c2ccc3c(c2)OCO3)CC1 [Compound 32, 1-(benzo[d][1,3]dioxol-5-yl)-N-(6-phenylpyridin-3-yl)cyclopropanecarboxamide]"
16,> 100,COc1ccccc1Cc1cncc(NC(=O)C2(c3ccc4c(c3)OCO4)CC2)n1 [Compound 33]
17,25 to 100,COc1ccccc1Cc1cnc(NC(=O)C2(c3ccc4c(c3)OCO4)CC2)cn1 [Compound 34]
